The IC50 is the point on the concentration scale where inhibition reaches its midpoint.

This test has as its system H3K27 methylation in G401 cell. Put plainly: ELISA (H3K27 methylation) assay. Format: cell-based. The note with it: Homo sapiens, G-401; ELISA Qualified assay (H3K27 methylation); read-out: (c) IC50 (μM), ELISA Qualified. From the text:
ELISA (H3K27 Methylation) Assay
(ELISA stands for enzyme-linked immunosorbent assay.)
With `O=C1CCCN1c1cncc(-c2cnc(NCc3cccc4c3CCO4)n3cnnc23)c1` [Example 87, 1-(5-(5-(((2,3-dihydrobenzofuran-4-yl)methyl)amino)-[1,2,4]triazolo[4,3-c]pyrimidin-8-yl)pyridin-3-yl)pyrrolidin-2-one], the IC50 was 0.707 µM.
On to `CN(C)c1ncc(-c2cnc(NCc3cccc4c3CCO4)n3cnnc23)cn1` [Example 88, N-((2,3-dihydrobenzofuran-4-yl)methyl)-8-(2-(dimethylamino)pyrimidin-5-yl)-[1,2,4]triazolo[4,3-c]pyrimidin-5-amine], for which the IC50 turned out to be 0.238 µM.
Take `CN(C)CCc1cccc(-c2cnc(NCc3cccc4c3CCO4)n3cnnc23)c1` [Example 89, N-((2,3-dihydrobenzofuran-4-yl)methyl)-8-(3-(2-(dimethylamino)ethyl)phenyl)-[1,2,4]triazolo[4,3-c]pyrimidin-5-amine]: the IC50 was 0.101 µM.
For `CC1(C)COC(c2cncc(-c3cnc(NCc4cccc5c4CCO5)n4cnnc34)c2)=N1` [Example 90, N-((2,3-dihydrobenzofuran-4-yl)methyl)-8-(5-(4,4-dimethyl-4,5-dihydrooxazol-2-yl)pyridin-3-yl)-[1,2,4]triazolo[4,3-c]pyrimidin-5-amine], the IC50 is 0.675 µM.
The value for `Fc1ccc2c(c1CNc1ncc(-c3ccc(N4CCSCC4)nc3)c3nncn13)CCO2` [Example 91, N-((5-fluoro-2,3-dihydrobenzofuran-4-yl)methyl)-8-(6-thiomorpholinopyridin-3-yl)-[1,2,4]triazolo[4,3-c]pyrimidin-5-amine] was 0.0225 µM; that for `Fc1ccc2c(c1CNc1ncc(-c3ccc(N4CCOCC4)nc3)c3nncn13)CCO2` [Example 92, N-((5-fluoro-2,3-dihydrobenzofuran-4-yl)methyl)-8-(6-morpholinopyridin-3-yl)-[1,2,4]triazolo[4,3-c]pyrimidin-5-amine] was 0.0409 µM; that for `N#Cc1ccc(-c2cnc(NCc3c(F)ccc4c3CCO4)n3cnnc23)cn1` [Example 93, 5-(5-(((5-fluoro-2,3-dihydrobenzofuran-4-yl)methyl)amino)-[1,2,4]triazolo[4,3-c]pyrimidin-8-yl)picolinonitrile] was 0.0241 µM.
`Fc1ccccc1-c1cnc(NCc2c(F)ccc3c2CCO3)n2cnnc12` [Example 94, N-((5-fluoro-2,3-dihydrobenzofuran-4-yl)methyl)-8-(2-fluorophenyl)-[1,2,4]triazolo[4,3-c]pyrimidin-5-amine]: the IC50 came to 0.0257 µM.
Consider `CN(C)C(=O)c1ccc(-c2cnc(NCc3cccc4c3CCO4)n3cnnc23)cn1` [Example 95, 5-(5-(((2,3-dihydrobenzofuran-4-yl)methyl)amino)-[1,2,4]triazolo[4,3-c]pyrimidin-8-yl)-N,N-dimethylpicolinamide], for which the IC50 turned out to be 0.158 µM.
Regarding `CC1CCCN1c1ccc(-c2cnc(NCc3cccc4c3CCO4)n3cnnc23)cn1` (stereo not shown) [Example 96, N-((2,3-dihydrobenzofuran-4-yl)methyl)-8-(6-(2-methylpyrrolidin-1-yl)pyridin-3-yl)-[1,2,4]triazolo[4,3-c]pyrimidin-5-amine], the IC50 was determined as 0.329 µM.
As for `COC(=O)N1CCN(c2ccc(-c3cnc(NCc4cccc5c4CCO5)n4cnnc34)cn2)CC1` [Example 97, methyl 4-(5-(5-(((2,3-dihydrobenzofuran-4-yl)methyl)amino)-[1,2,4]triazolo[4,3-c]pyrimidin-8-yl)pyridin-2-yl)piperazine-1-carboxylate], the IC50 amounted to 0.183 µM.
As for `CS(=O)(=O)CCCOc1cncc(-c2cnc(NCc3cccc4c3CCO4)n3cnnc23)c1` [Example 98, N-((2,3-dihydrobenzofuran-4-yl)methyl)-8-(5-(3-(methylsulfonyl)propoxy)pyridin-3-yl)-[1,2,4]triazolo[4,3-c]pyrimidin-5-amine], the concentration for half-maximal inhibition (IC50) was found to be 1.42 µM.
For `CC(C)(O)c1ccc(-c2cnc(NCc3cccc4c3CCO4)n3cnnc23)cn1` [Example 99, 2-(5-(5-(((2,3-dihydrobenzofuran-4-yl)methyl)amino)-[1,2,4]triazolo[4,3-c]pyrimidin-8-yl)pyridin-2-yl)propan-2-ol], the IC50 came out at 0.107 µM.
Regarding `FC1(F)CCN(CCc2ccc(-c3cnc(NCc4cccc5c4CCO5)n4cnnc34)cn2)C1` [Example 100, 8-(6-(2-(3,3-difluoropyrrolidin-1-yl)ethyl)pyridin-3-yl)-N-((2,3-dihydrobenzofuran-4-yl)methyl)-[1,2,4]triazolo[4,3-c]pyrimidin-5-amine], the half-maximal inhibitory concentration (IC50) amounted to 0.181 µM.
In the case of `CC1(C)COC(c2ccc(-c3cnc(NCc4cccc5c4CCO5)n4cnnc34)cn2)=N1` [Example 101, N-((2,3-dihydrobenzofuran-4-yl)methyl)-8-(6-(4,4-dimethyl-4,5-dihydrooxazol-2-yl)pyridin-3-yl)-[1,2,4]triazolo[4,3-c]pyrimidin-5-amine], the IC50 came out at 0.761 µM.
In the case of `CN(C)CCN(C)C(=O)c1ccc(-c2cnc(NCc3cccc4c3CCO4)n3cnnc23)cn1` [Example 102, 5-(5-(((2,3-dihydrobenzofuran-4-yl)methyl)amino)-[1,2,4]triazolo[4,3-c]pyrimidin-8-yl)-N-(2-(dimethylamino)ethyl)-N-methylpicolinamide], the IC50 was 0.285 µM.
In the case of `O=C1CN(c2ccc(-c3cnc(NCc4cccc5c4CCO5)n4cnnc34)cn2)CCN1` [Example 104, 4-(5-(5-(((2,3-dihydrobenzofuran-4-yl)methyl)amino)-[1,2,4]triazolo[4,3-c]pyrimidin-8-yl)pyridin-2-yl)piperazin-2-one], the IC50 was 2.33 µM.
`Cc1cc(-c2cnc(NCc3cccc4c3CCO4)n3cnnc23)cnc1N1CCNC(=O)C1` [Example 105, 4-(5-(5-(((2,3-dihydrobenzofuran-4-yl)methyl)amino)-[1,2,4]triazolo[4,3-c]pyrimidin-8-yl)-3-methylpyridin-2-yl)piperazin-2-one]: the IC50 stood at 2.42 µM.
The value for `CS(=O)(=O)CCOc1cncc(-c2cnc(NCc3cccc4c3CCO4)n3cnnc23)c1` [Example 106, N-((2,3-dihydrobenzofuran-4-yl)methyl)-8-(5-(2-(methylsulfonyl)ethoxy)pyridin-3-yl)-[1,2,4]triazolo[4,3-c]pyrimidin-5-amine] was 2.7 µM; that for `O=CN1CCN(CCc2ccc(-c3cnc(NCc4cccc5c4CCO5)n4cnnc34)cn2)CC1` [Example 107, 4-(2-(5-(5-(((2,3-dihydrobenzofuran-4-yl)methyl)amino)-[1,2,4]triazolo[4,3-c]pyrimidin-8-yl)pyridin-2-yl)ethyl)piperazine-1-carbaldehyde] was 0.161 µM; that for `CC(=O)N1CCN(CCc2ccc(-c3cnc(NCc4cccc5c4CCO5)n4cnnc34)cn2)CC1` [Example 108, 1-(4-(2-(5-(5-(((2,3-dihydrobenzofuran-4-yl)methyl)amino)-[1,2,4]triazolo[4,3-c]pyrimidin-8-yl)pyridin-2-yl)ethyl)piperazin-1-yl)ethanone] was 0.173 µM.
Consider `O=C1CN(CCc2ccc(-c3cnc(NCc4cccc5c4CCO5)n4cnnc34)cn2)CCN1` [Example 109, 4-(2-(5-(5-(((2,3-dihydrobenzofuran-4-yl)methyl)amino)-[1,2,4]triazolo[4,3-c]pyrimidin-8-yl)pyridin-2-yl)ethyl)piperazin-2-one], for which the IC50 was found to be 1.21 µM.
Consider `OCCN1CCN(c2ccc(-c3cnc(NCc4cccc5c4CCO5)n4cnnc34)cn2)CC1` [Example 110, 2-(4-(5-(5-(((2,3-dihydrobenzofuran-4-yl)methyl)amino)-[1,2,4]triazolo[4,3-c]pyrimidin-8-yl)pyridin-2-yl)piperazin-1-yl)ethanol], for which the IC50 is 0.124 µM.
`CNc1cc(F)c(-c2cnc(NCc3cccc4c3CCO4)n3cnnc23)cn1` [Example 111, N-((2,3-dihydrobenzofuran-4-yl)methyl)-8-(4-fluoro-6-(methylamino)pyridin-3-yl)-[1,2,4]triazolo[4,3-c]pyrimidin-5-amine]: the IC50 was found to be 0.14 µM.
In the case of `CN(C)c1cc(F)c(-c2cnc(NCc3cccc4c3CCO4)n3cnnc23)cn1` [Example 112, N-((2,3-dihydrobenzofuran-4-yl)methyl)-8-(6-(dimethylamino)-4-fluoropyridin-3-yl)-[1,2,4]triazolo[4,3-c]pyrimidin-5-amine], the IC50 stood at 0.389 µM.
In the case of `O=CN1CCCN(c2ccc(-c3cnc(NCc4cccc5c4CCO5)n4cnnc34)cn2)CC1` [Example 113, 4-(5-(5-(((2,3-dihydrobenzofuran-4-yl)methyl)amino)-[1,2,4]triazolo[4,3-c]pyrimidin-8-yl)pyridin-2-yl)-1,4-diazepane-1-carbaldehyde], the concentration for half-maximal inhibition (IC50) stood at 0.72 µM.
As for `CCNC(=O)c1ccc(-c2cnc(NCc3cccc4c3CCO4)n3cnnc23)cn1` [Example 114, 5-(5-(((2,3-dihydrobenzofuran-4-yl)methyl)amino)-[1,2,4]triazolo[4,3-c]pyrimidin-8-yl)-N-ethylpicolinamide], the IC50 was found to be 1.98 µM.
Consider `Fc1ccc2c(c1CNc1ncc(-c3cccnc3F)c3nncn13)CCO2` [Example 115, N-((5-fluoro-2,3-dihydrobenzofuran-4-yl)methyl)-8-(2-fluoropyridin-3-yl)-[1,2,4]triazolo[4,3-c]pyrimidin-5-amine], for which the IC50 came to 0.0243 µM.
The value for `Cc1cc(-c2cnc(NCc3c(F)ccc4c3CCO4)n3cnnc23)ccn1` [Example 116, N-((5-fluoro-2,3-dihydrobenzofuran-4-yl)methyl)-8-(2-methylpyridin-4-yl)-[1,2,4]triazolo[4,3-c]pyrimidin-5-amine] was 0.0072 µM; that for `O=C1OCCN1c1ccc(-c2cnc(NCc3cccc4c3CCO4)n3cnnc23)cn1` [Example 117, 3-(5-(5-(((2,3-dihydrobenzofuran-4-yl)methyl)amino)-[1,2,4]triazolo[4,3-c]pyrimidin-8-yl)pyridin-2-yl)oxazolidin-2-one] was 0.48 µM; that for `Cc1ccncc1-c1cnc(NCc2c(F)ccc3c2CCO3)n2cnnc12` [Example 118, N-((5-fluoro-2,3-dihydrobenzofuran-4-yl)methyl)-8-(4-methylpyridin-3-yl)-[1,2,4]triazolo[4,3-c]pyrimidin-5-amine] was 0.0177 µM.

For the origin of these results see US11207325B2, “Triazolopyrimidine compounds and uses thereof” (Novartis AG, priority 2014, dated 2021).
